Data reported in paper PMC12090182, “Repurposing of the RIPK1-Selective Benzo[1,4]oxazepin-4-one Scaffold for the Development of a Type III LIMK1/2 Inhibitor” (ACS Chemical Biology, 2025).

Target: 468 kinases including some pathogenic mutants (Mycobacterium tuberculosis, UniProt P9WI81)
Experiment: biochemical
Type: binding

SMILES: CN1C(=O)[C@@H](N2CCc3c(nn(Cc4ccccc4)c3C(N)=O)C2=O)COc2cc(Cl)ccc21 [Compound 10, (S)-2-benzyl-6-(8-chloro-5-methyl-4-oxo-2,3,4,5-tetrahydrobenzo[b][1,4]oxazepin-3-yl)-7-oxo-4,5,6,7-tetrahydro-2H-pyrazolo[3,4-c]pyridine-3-carboxamide]
- Percent Control: 100%
